Some results are limits rather than exact numbers.

For orientation: inhibition means the percentage by which the read-out fell short of the control. Higher therefore signals a response far below the control. As a reminder, the Ki is the equilibrium dissociation constant of an inhibitor or competing ligand from its target. One may read the logD as lipophilicity at a set pH, counting ionised and neutral species.

D(4) dopamine receptor (Homo sapiens), sequence (P21917 whole entry): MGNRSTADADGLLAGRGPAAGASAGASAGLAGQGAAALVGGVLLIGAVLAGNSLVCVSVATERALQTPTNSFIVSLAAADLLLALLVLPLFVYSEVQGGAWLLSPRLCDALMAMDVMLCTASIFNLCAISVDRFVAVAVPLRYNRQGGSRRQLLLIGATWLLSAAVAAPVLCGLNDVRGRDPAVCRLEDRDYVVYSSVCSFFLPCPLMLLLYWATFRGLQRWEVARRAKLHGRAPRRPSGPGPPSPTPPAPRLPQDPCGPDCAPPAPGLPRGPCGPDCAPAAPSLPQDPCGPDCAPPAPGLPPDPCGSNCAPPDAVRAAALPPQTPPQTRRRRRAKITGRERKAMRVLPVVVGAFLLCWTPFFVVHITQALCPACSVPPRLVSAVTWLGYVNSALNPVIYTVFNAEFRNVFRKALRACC
Sodium-dependent serotonin transporter (Homo sapiens), sequence (P31645 whole entry, looked up): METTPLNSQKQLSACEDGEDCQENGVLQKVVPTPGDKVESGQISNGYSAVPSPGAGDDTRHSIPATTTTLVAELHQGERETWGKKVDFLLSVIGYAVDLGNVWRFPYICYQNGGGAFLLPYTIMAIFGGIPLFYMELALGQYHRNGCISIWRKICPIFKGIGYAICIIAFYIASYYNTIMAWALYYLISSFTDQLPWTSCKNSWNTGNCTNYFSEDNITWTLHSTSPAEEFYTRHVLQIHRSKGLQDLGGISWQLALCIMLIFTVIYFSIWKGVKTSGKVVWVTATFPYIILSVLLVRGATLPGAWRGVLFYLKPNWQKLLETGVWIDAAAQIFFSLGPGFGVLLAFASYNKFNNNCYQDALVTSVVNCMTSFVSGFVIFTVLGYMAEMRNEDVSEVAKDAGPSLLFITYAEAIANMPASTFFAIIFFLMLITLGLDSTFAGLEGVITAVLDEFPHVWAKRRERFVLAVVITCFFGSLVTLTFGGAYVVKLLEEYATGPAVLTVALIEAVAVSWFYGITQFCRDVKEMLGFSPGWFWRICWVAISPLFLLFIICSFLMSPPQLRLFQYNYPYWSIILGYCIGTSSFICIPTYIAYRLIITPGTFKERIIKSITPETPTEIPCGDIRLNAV
5-hydroxytryptamine receptor 6 (Homo sapiens), sequence (P50406 whole entry): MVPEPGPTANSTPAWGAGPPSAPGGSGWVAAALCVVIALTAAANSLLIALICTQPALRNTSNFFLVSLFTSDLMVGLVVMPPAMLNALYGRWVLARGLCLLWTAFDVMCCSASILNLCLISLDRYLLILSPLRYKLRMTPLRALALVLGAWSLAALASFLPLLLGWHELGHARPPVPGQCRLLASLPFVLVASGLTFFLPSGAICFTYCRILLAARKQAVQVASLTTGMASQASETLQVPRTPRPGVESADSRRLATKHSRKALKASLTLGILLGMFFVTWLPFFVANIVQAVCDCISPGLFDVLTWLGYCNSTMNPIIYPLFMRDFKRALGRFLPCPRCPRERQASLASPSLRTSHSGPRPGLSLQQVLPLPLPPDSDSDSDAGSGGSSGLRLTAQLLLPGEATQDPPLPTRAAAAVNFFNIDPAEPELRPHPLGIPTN

For one series, the target named is Sodium-dependent noradrenaline transporter (Homo sapiens) (UniProt P23975). Description: Binding affinity to NE transporter (unknown origin) at 10 uM by displacement assay relative to control.
Sodium-dependent noradrenaline transporter (Homo sapiens), sequence (P23975 whole entry): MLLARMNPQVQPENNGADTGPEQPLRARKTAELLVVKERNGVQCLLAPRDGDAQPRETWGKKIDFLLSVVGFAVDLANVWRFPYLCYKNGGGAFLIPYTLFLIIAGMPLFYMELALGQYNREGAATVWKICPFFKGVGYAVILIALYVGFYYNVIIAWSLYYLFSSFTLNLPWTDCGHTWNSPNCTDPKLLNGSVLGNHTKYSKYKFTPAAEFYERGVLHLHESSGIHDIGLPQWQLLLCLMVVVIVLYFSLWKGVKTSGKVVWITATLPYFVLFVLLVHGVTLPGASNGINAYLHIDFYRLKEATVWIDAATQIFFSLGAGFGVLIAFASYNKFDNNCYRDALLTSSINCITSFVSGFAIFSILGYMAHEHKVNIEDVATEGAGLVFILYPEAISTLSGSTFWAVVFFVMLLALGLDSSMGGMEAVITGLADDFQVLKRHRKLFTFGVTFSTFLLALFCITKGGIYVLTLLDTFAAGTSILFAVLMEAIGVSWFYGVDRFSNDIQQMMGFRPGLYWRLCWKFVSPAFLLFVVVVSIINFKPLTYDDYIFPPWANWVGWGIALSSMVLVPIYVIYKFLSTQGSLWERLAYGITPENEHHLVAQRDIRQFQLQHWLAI
Conditions: not given
As for `O=C(NCCN1CCN(Cc2ccccc2)CC1)[C@H]1C[C@@H]1c1ccccc1` (racemic), the inhibition came out at 50%.
Take `COc1ccc(CCN2CCN(CCCc3ccccc3)CC2)cc1OC`: the inhibition is above 90%.

A further series addresses D(4) dopamine receptor (Homo sapiens) (UniProt P21917). Description: Binding affinity to dopamine D4 receptor (unknown origin) at 10 uM by displacement assay relative to control.
Conditions: not given
`O=C(NCCN1CCN(Cc2ccccc2)CC1)[C@H]1C[C@@H]1c1ccccc1` (racemic) had an inhibition above 90%.
The compound `COc1ccc(CCN2CCN(CCCc3ccccc3)CC2)cc1OC` registered an inhibition of 50%.

A further series is filed under the species Rattus norvegicus. Description: Displacement of [3H]1,3-di-O-tolylguanidine from sigma-2 receptor in rat cerebral cortex. It counts as tissue-based. The conditions noted are these: concentration not given here. In general terms: Loss of bound radioactivity is the signal in a displacement assay; it reports binding, not function.
With `O=C(NCCCNC1CCCCC1)[C@H]1C[C@@H]1c1ccccc1` (stereo in doubt; (+)-1), the inhibition was found to be 6.6%.

Tested on in another series: not listed separately
Description: Intrinsic clearance in rat liver microsomes measured per mg of protein. It counts as ADME. The conditions noted are these: read-out: CLH. (In general: Liver microsomes are a subcellular fraction often used to study metabolism.)
Regarding `O=C(NCCCN1CCN(Cc2c(F)cccc2Cl)CC1)[C@H]1C[C@@H]1c1ccccc1` (racemic), the microsomal CLint was 305 µL/min/mg.
Still for that read-out and setting: the result for `O=C(NCCN1CCN(Cc2c(F)cccc2Cl)CC1)[C@H]1C[C@@H]1c1ccccc1` (racemic) reads 283 µL/min/mg; that for `O=C(NCCN1CCN(Cc2ccccc2)CC1)[C@H]1C[C@@H]1c1ccccc1` (racemic), 122 µL/min/mg.

The next series addresses 5-hydroxytryptamine receptor 6 (Homo sapiens) (UniProt P50406). Description: Binding affinity to 5HT-6 receptor (unknown origin) at 10 uM by displacement assay relative to control.
Conditions: not given
In turn, `O=C(NCCN1CCN(Cc2ccccc2)CC1)[C@H]1C[C@@H]1c1ccccc1` (racemic) showed an inhibition of 50%.

For a further series, the target named is Sigma non-opioid intracellular receptor 1 (Homo sapiens, UniProt Q99720). Description: Displacement of [3H]-pentazocine from human recombinant sigma-1 receptor expressed in CHO cells after 180 mins by beta counting analysis. It counts as cell-based.
Sigma non-opioid intracellular receptor 1, sequence (Q99720 whole entry): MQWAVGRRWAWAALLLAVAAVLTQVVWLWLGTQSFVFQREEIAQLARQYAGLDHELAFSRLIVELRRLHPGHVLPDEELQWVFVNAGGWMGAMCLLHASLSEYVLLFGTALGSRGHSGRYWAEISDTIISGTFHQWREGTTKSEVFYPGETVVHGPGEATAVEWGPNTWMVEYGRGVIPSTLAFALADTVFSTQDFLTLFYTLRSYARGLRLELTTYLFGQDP
Conditions: not given
Consider `O=C(NCCCN1CCN(Cc2c(F)cccc2Cl)CC1)[C@H]1C[C@@H]1c1ccccc1` (racemic), for which the Ki is 25.1 nM.
As for `O=C(NCCN1CCN(Cc2c(F)cccc2Cl)CC1)[C@H]1C[C@@H]1c1ccccc1` (racemic), the Ki was 25.1 nM.
Still for that read-out and setting: the result for `O=C(NCCN1CCN(Cc2ccccc2)CC1)[C@H]1C[C@@H]1c1ccccc1` (racemic) reads 15.8 nM.

The target of the next series is 5-hydroxytryptamine receptor 2A (Homo sapiens) (UniProt P28223). Description: Binding affinity to 5HT-2a receptor (unknown origin) at 10 uM by displacement assay relative to control.
5-hydroxytryptamine receptor 2A (Homo sapiens), sequence (P28223 whole entry): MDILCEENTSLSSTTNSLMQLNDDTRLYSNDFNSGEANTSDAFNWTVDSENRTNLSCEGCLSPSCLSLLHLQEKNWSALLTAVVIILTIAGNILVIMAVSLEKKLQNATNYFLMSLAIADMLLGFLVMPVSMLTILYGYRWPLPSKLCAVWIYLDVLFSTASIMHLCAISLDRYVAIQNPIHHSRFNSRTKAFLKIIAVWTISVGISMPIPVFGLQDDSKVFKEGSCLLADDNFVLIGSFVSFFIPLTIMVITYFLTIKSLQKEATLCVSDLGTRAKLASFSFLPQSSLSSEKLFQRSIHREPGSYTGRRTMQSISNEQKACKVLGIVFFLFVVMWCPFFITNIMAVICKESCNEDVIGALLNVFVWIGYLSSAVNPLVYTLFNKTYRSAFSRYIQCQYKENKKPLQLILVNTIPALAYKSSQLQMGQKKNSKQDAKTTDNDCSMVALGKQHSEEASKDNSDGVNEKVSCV
Conditions: not given
In turn, `O=C(NCCCN1CCN(Cc2c(F)cccc2Cl)CC1)[C@H]1C[C@@H]1c1ccccc1` (racemic) yielded an inhibition above 90%.
The compound `O=C(NCCCNC1CCCCC1)[C@H]1C[C@@H]1c1ccccc1` (stereo in doubt; (+)-1) registered an inhibition above 90%.
The same measure, in the same setting: next, `O=C(NCCN1CCN(Cc2ccccc2)CC1)[C@H]1C[C@@H]1c1ccccc1` (racemic): 50%; `COc1ccc(CCN2CCN(CCCc3ccccc3)CC2)cc1OC`: 50%.

The target in a further series is 5-hydroxytryptamine receptor 7 (Homo sapiens) (UniProt P34969). Description: Binding affinity to 5HT-7 receptor (unknown origin) at 10 uM by displacement assay relative to control.
5-hydroxytryptamine receptor 7 (Homo sapiens), sequence (P34969 whole entry): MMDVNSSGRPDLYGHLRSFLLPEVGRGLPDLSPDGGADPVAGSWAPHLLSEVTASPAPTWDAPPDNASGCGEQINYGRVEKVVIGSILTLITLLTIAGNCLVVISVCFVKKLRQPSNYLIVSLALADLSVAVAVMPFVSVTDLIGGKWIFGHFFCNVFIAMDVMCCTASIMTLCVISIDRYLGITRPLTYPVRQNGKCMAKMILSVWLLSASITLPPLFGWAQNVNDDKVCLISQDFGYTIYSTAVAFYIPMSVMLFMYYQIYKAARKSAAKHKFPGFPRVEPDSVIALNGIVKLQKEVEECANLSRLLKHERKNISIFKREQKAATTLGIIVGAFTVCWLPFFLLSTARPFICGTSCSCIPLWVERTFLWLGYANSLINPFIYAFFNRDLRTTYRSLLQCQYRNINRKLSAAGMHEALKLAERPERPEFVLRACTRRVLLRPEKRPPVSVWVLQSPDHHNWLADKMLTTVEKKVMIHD
Conditions: not given
In turn, `O=C(NCCN1CCN(Cc2ccccc2)CC1)[C@H]1C[C@@H]1c1ccccc1` (racemic) gave an inhibition of 50%.

Tested on in a further series: not listed separately
Description: Octanol-water distribution coefficient, log D of the compound at pH 7.4. It counts as physicochemical. The note with it: read-out: logD.
Consider `O=C(NCCCN1CCN(Cc2c(F)cccc2Cl)CC1)[C@H]1C[C@@H]1c1ccccc1` (racemic), for which the logD amounted to 3.5.
Turning to `O=C(NCCN1CCN(Cc2c(F)cccc2Cl)CC1)[C@H]1C[C@@H]1c1ccccc1` (racemic), the log distribution coefficient (logD) was 3.7.
The same measure, in the same setting: the result for `O=C(NCCN1CCN(Cc2ccccc2)CC1)[C@H]1C[C@@H]1c1ccccc1` (racemic) reads 2.8.

For a further series, the target named is Adrenergic receptor alpha-1 (Homo sapiens) (UniProt P35348+P25100+P35368). Description: Binding affinity to adrenergic alpha-1 receptor (unknown origin) at 10 uM by displacement assay relative to control. It counts as protein assay.
Conditions: not given
`O=C(NCCCN1CCN(Cc2c(F)cccc2Cl)CC1)[C@H]1C[C@@H]1c1ccccc1` (racemic) registered an inhibition of 50%.
The compound `O=C(NCCCNC1CCCCC1)[C@H]1C[C@@H]1c1ccccc1` (stereo in doubt; (+)-1) registered an inhibition of 50%.
Still for that read-out and setting: next, `COc1ccc(CCN2CCN(CCCc3ccccc3)CC2)cc1OC`: above 90%.

In the next series the target is Mu-type opioid receptor (Homo sapiens) (UniProt P35372). Description: Binding affinity to mu opioid receptor (unknown origin) at 10 uM by displacement assay relative to control.
Mu-type opioid receptor (Homo sapiens), sequence (P35372 whole entry): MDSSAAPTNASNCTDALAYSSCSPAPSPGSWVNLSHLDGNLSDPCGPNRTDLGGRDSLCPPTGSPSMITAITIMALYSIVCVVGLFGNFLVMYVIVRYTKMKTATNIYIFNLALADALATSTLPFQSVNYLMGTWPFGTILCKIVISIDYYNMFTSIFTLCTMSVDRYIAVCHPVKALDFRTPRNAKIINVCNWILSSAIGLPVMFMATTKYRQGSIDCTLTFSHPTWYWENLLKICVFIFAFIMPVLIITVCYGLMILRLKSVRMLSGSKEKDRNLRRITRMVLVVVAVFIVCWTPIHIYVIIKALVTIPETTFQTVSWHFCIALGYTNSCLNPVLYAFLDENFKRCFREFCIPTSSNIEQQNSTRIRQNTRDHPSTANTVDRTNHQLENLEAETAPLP
Conditions: not given
`O=C(NCCN1CCN(Cc2ccccc2)CC1)[C@H]1C[C@@H]1c1ccccc1` (racemic) registered an inhibition of 50%.

The next series concerns the target D(2) dopamine receptor (Homo sapiens) (UniProt P14416). Description: Binding affinity to dopamine D2 receptor (unknown origin) at 10 uM by displacement assay relative to control.
Conditions: not given
Take `COc1ccc(CCN2CCN(CCCc3ccccc3)CC2)cc1OC`: the inhibition turned out to be 50%.

The next series addresses Sodium-dependent serotonin transporter (Homo sapiens) (UniProt P31645). Description: Binding affinity to 5HT transporter (unknown origin) at 10 uM by displacement assay relative to control.
Conditions: not given
The compound `COc1ccc(CCN2CCN(CCCc3ccccc3)CC2)cc1OC` came in with an inhibition of 50%.

The species named for a further series is Homo sapiens. Description: Binding affinity to Ca2+ channel (unknown origin) at 10 uM by displacement assay relative to control.
Conditions: not given
`O=C(NCCCN1CCN(Cc2c(F)cccc2Cl)CC1)[C@H]1C[C@@H]1c1ccccc1` (racemic) came in with an inhibition above 90%.
The compound `O=C(NCCCNC1CCCCC1)[C@H]1C[C@@H]1c1ccccc1` (stereo in doubt; (+)-1) gave an inhibition of 50%.

In the next series the target is Sodium-dependent dopamine transporter (Homo sapiens) (UniProt Q01959). Description: Binding affinity to DA transporter (unknown origin) at 10 uM by displacement assay relative to control.
Sodium-dependent dopamine transporter (Homo sapiens), sequence (Q01959 whole entry): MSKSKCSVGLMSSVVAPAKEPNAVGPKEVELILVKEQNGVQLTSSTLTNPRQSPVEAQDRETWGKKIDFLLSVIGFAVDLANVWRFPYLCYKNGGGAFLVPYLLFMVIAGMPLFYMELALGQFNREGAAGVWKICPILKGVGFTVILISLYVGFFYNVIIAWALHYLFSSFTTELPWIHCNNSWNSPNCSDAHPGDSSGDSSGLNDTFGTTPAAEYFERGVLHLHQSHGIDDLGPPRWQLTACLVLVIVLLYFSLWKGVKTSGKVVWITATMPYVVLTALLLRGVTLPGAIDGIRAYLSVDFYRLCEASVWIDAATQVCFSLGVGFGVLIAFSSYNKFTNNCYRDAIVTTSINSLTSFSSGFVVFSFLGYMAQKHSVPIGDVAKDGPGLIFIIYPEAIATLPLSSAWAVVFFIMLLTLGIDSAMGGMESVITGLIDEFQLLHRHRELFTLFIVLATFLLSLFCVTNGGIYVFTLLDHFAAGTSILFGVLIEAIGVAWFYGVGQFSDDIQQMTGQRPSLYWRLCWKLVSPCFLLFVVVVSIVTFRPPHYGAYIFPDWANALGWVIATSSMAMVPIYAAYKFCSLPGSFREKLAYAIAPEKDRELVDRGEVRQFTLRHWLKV
Conditions: not given
`O=C(NCCN1CCN(Cc2ccccc2)CC1)[C@H]1C[C@@H]1c1ccccc1` (racemic) showed an inhibition of 50%.
Still for that read-out and setting: next, `COc1ccc(CCN2CCN(CCCc3ccccc3)CC2)cc1OC`: 50%.

For a further series, the target named is T1, Alpha-2C adrenergic receptor (Homo sapiens) (UniProt P18825).
T1 sequence (whole entry): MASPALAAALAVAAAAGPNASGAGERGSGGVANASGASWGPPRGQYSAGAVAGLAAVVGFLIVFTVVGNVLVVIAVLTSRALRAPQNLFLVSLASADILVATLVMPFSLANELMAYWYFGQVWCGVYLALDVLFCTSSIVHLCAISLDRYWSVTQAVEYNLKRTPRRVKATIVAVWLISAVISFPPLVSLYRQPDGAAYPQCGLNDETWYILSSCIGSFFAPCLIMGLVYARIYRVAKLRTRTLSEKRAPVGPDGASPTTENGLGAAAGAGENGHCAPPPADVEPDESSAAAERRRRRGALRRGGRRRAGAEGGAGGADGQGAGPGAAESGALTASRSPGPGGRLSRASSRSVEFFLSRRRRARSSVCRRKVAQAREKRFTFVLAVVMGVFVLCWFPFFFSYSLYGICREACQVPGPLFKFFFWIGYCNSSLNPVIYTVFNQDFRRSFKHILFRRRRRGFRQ
Description: Binding affinity to adrenergic alpha-2c receptor (unknown origin) at 10 uM by displacement assay relative to control.
Conditions: not given
In the case of `O=C(NCCCN1CCN(Cc2c(F)cccc2Cl)CC1)[C@H]1C[C@@H]1c1ccccc1` (racemic), the inhibition worked out at 50%.
Regarding `O=C(NCCCNC1CCCCC1)[C@H]1C[C@@H]1c1ccccc1` (stereo in doubt; (+)-1), the inhibition was found to be 50%.
On the same count and under the same terms, next, `COc1ccc(CCN2CCN(CCCc3ccccc3)CC2)cc1OC`: 50%.

A further series has as its target Histamine H1 receptor (Homo sapiens) (UniProt P35367). Description: Binding affinity to histamine H1 receptor (unknown origin) at 10 uM by displacement assay relative to control.
Conditions: not given
`O=C(NCCCN1CCN(Cc2c(F)cccc2Cl)CC1)[C@H]1C[C@@H]1c1ccccc1` (racemic): the inhibition stood at 50%.

The target of the next series is Alpha-2B adrenergic receptor (Homo sapiens) (UniProt P18089). Description: Binding affinity to adrenergic alpha-2b receptor (unknown origin) at 10 uM by displacement assay relative to control.
Conditions: not given
On to `O=C(NCCCNC1CCCCC1)[C@H]1C[C@@H]1c1ccccc1` (stereo in doubt; (+)-1), for which the inhibition stood at 50%.

The species named for the next series is Homo sapiens. Description: Binding affinity to […] channel (unknown origin) at 10 uM by displacement assay relative to control.
Conditions: not given
Turning to `O=C(NCCCNC1CCCCC1)[C@H]1C[C@@H]1c1ccccc1` (stereo in doubt; (+)-1), the inhibition worked out at 50%.

In the next series the target is Kappa-type opioid receptor (Homo sapiens) (UniProt P41145). Description: Binding affinity to kappa opioid receptor (unknown origin) at 10 uM by displacement assay relative to control.
Kappa-type opioid receptor (Homo sapiens), sequence (P41145 whole entry): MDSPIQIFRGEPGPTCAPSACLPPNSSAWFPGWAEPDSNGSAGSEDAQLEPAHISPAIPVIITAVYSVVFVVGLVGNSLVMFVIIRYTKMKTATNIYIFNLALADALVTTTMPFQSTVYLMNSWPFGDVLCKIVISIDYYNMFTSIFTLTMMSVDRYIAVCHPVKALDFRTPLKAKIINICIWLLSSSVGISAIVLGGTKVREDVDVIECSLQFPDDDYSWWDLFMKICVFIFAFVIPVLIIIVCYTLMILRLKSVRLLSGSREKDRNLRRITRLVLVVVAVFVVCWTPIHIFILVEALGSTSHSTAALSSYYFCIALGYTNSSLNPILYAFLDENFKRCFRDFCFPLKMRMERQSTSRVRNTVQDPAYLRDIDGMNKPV
Conditions: not given
`O=C(NCCN1CCN(Cc2ccccc2)CC1)[C@H]1C[C@@H]1c1ccccc1` (racemic) gave an inhibition of 50%.

Another series has as its target Histamine H3 receptor (Homo sapiens) (UniProt Q9Y5N1). Description: Binding affinity to histamine H3 receptor (unknown origin) at 10 uM by displacement assay relative to control.
Conditions: not given
The compound `COc1ccc(CCN2CCN(CCCc3ccccc3)CC2)cc1OC` returned an inhibition of 50%.

For a further series, the target named is D(3) dopamine receptor (Homo sapiens) (UniProt P35462). Description: Binding affinity to dopamine D3 receptor (unknown origin) at 10 uM by displacement assay relative to control.
Conditions: not given
In turn, `COc1ccc(CCN2CCN(CCCc3ccccc3)CC2)cc1OC` displayed an inhibition of 50%.

The species named for a further series is Rattus norvegicus. Description: Displacement of [3H]1,3-di-O-tolylguanidine from sigma-2 receptor in rat cerebral cortex at 10 uM relative to control. It counts as tissue-based.
Conditions: not given
Consider `COc1ccc(CCN2CCN(CCCc3ccccc3)CC2)cc1OC`, for which the inhibition came out at 99%.

These data come from ChEMBL document CHEMBL3217650, “Discovery of novel selective Sigma-1 ligands as cognitive enhancers” (Medchemcomm, 2011).
